US8492428B2 (priority 2005, dated 2013)
Entries after “also recorded” stand apart in the source; their conditions may differ. Where two headings read alike, the source gives them in different places.

What was measured:
[1] = target: endopeptidase (LC) of botulinum neurotoxin serotype A (BoNTA) (Clostridium botulinum, UniProt P0DPI0); test: biochemical; settings: for inhibition at 100 µM: read-out: % Inhibition at 100 μM, BoNTA LC
[2] = target: endopeptidase (LC) of botulinum neurotoxin serotype B (BoNTB) (Clostridium botulinum, UniProt P10844); test: biochemical; assay type: biochemical; settings: for inhibition at 100 µM: read-out: % Inhibition at 100 μM, BoNTB LC
BoNTA light chain = BoNTA light chain (Clostridium botulinum, UniProt P0DPI0); test: biochemical
Sequence of BoNTA light chain (P0DPI0 2-448 limits assumed): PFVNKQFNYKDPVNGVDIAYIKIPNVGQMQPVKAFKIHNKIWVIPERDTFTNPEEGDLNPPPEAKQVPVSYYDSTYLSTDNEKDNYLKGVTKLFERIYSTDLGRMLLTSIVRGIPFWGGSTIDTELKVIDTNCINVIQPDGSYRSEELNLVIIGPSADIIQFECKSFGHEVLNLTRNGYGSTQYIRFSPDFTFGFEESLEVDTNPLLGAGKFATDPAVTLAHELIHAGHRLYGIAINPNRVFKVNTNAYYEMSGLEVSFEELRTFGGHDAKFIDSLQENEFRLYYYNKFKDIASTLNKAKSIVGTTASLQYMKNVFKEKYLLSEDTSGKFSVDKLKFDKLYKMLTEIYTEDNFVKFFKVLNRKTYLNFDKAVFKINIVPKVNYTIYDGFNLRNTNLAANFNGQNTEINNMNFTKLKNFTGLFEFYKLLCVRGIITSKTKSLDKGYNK

Sequence of endopeptidase (LC) of botulinum neurotoxin serotype A (BoNTA) (P0DPI0 2-448 limits assumed): as above
Sequence of endopeptidase (LC) of botulinum neurotoxin serotype B (BoNTB) (P10844 2-441 limits assumed): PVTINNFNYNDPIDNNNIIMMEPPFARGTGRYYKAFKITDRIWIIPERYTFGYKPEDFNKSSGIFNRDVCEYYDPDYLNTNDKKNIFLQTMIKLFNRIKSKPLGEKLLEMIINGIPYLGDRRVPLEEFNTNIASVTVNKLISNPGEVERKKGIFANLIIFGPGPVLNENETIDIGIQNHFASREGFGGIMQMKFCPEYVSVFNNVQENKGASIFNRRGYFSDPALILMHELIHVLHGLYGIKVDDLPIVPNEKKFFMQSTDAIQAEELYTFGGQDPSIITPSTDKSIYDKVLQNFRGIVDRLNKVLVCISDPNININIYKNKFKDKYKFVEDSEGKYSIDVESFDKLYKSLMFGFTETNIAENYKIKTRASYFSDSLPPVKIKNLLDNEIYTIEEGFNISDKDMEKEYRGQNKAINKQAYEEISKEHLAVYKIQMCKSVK

| Structure (SMILES) | inhibition at 100 µM [1] | inhibition of the endopeptidase of BoNTA, in words (comparisons) [1] | inhibition at 100 µM [2] | melting point | further results |
| --- | --- | --- | --- | --- | --- |
| O=C(O)Cc1cc(C(=O)c2ccc(Cl)cc2)sc1-c1ccccc1 [Compound 1, [5-(4-Chlorobenzoyl)-2-phenylthiophene-3-yl]acetic acid] | 15% |  |  |  |  |
| O=C(Cc1cc(C(=O)c2ccc(Cl)cc2)sc1-c1ccccc1)NO [Compound 2, 2-[5-(4-Chlorobenzoyl)-2-phenylthiophene-3-yl]-N-hydroxyacetamide] | 30% | more active in inhibiting the endopeptidase than 1 | 0% |  | effect on the endopeptidase of BoNTB, in words [2]: no effect |
| Nc1cc(C(=O)c2cc(CC(=O)NO)c(-c3ccccc3)s2)ccc1I [Compound 4, 2-[5-(3-Amino-4-iodobenzoyl)-2-phenylthiophene-3-yl]-N-hydroxyacetamide] | 40% | more active in inhibiting the endopeptidase than 2 | 0% | > 170 °C (dec.) | effect on the endopeptidase of BoNTB, in words [2]: no effect |
| O=C(Cc1cc(C(=O)c2ccc(I)c([N+](=O)[O-])c2)sc1-c1ccccc1)NO [Compound 5, 2-[5-(3-Nitro-4-iodobenzoyl)-2-phenylthiophene-3-yl]-N-hydroxyacetamide] |  |  |  | 147 to 151 °C |  |
| NNC(=O)Cc1cc(C(=O)c2ccc(Br)cc2)sc1-c1ccccc1 [Compound 6, [5-(4-Bromobenzoyl)-2-phenylthiophene-3-yl]acetic acid hydrazide] |  |  |  | 157 to 161 °C |  |
| NNC(=O)Cc1cc(C(=O)c2ccc(I)c(N)c2)sc1-c1ccccc1 [Compound 7, [5-(3-Amino-4-iodobenzoyl)-2-phenylthiophene-3-yl]acetic acid hydrazide] |  |  |  | 159 to 165 °C |  |
| O=C(O)Cc1cc(C(=O)c2ccc3cc(-c4ccccc4)[nH]c3c2)sc1-c1ccccc1 [Compound 8, [2-Phenyl-5-(2-phenyl-1H-indole-6-carbonyl)thiophene-3-yl]acetic acid] |  | less potent in inhibiting the endopeptidase than 1 and 2 |  |  |  |
| O=C(Cc1cc(C(=O)c2ccc3cc(-c4ccccc4)[nH]c3c2)sc1-c1ccccc1)NO [Compound 9, N-Hydroxy-2-[2-phenyl-5-(2-phenyl-1H-indole-6-carbonyl)thiophene-3-yl]acetamide] |  | less potent in inhibiting the endopeptidase than 1 and 2 |  |  |  |
| Cl.NCCCCn1c(-c2ccccc2)cc2ccc(C(=O)c3cc(CC(=O)NO)c(-c4ccccc4)s3)cc21 [Compound 12, 2-{5-[1-(4-Aminobutyl)-2-phenyl-1H-indole-6-carbonyl]-2-phenylthiophene-3-yl}-N-hydroxyacetamide hydrochloride] | 96% |  | 0% |  | Ki (BoNTA light chain): 12 ± 2.6 µM; effect of adding more zinc on the inhibition of BoNTA [1]: no effect; inhibition at 15 µM ([1]; read-out: % inhibition of BoNTA at 15 μM): 48%; effect on the endopeptidase of BoNTB, in words ([2]; hydrochloride): no effect; also recorded: did not inhibit |
